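1) Cells in 96-well plates. 2) Compound, 48 h, 5 concentrations. 3) Linear interpolation between surrounding doses. 4) Unreached endpoint = highest concentration. GI50: concentration for 50% inhibition of growth. TGI: concentration producing complete growth inhibition.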
Key:
Experiment in all cases: growth of human tumour cells (NCI), 48 h
MDA-MB-468 breast = tested on: MDA-MB-468 breast
786-0 renal = tested on: 786-0 renal
A498 renal = tested on: A498 renal
A549 NSCLC = tested on: A549 NSCLC
ACHN renal = tested on: ACHN renal
BT-549 breast = tested on: BT-549 breast
CAKI-1 renal = tested on: CAKI-1 renal
CCRF-CEM leukemia = tested on: CCRF-CEM leukemia
COLO 205 colon = tested on: COLO 205 colon
DU-145 prostate = tested on: DU-145 prostate
EKVX NSCLC = tested on: EKVX NSCLC
HCC-2998 colon = tested on: HCC-2998 colon
HCT-116 colon = tested on: HCT-116 colon
HCT-15 colon = tested on: HCT-15 colon
HL-60(TB) leukemia = tested on: HL-60(TB) leukemia
HOP-62 NSCLC = tested on: HOP-62 NSCLC
HOP-92 NSCLC = tested on: HOP-92 NSCLC
HS 578T breast = tested on: HS 578T breast
HT29 colon = tested on: HT29 colon
IGROV1 ovarian = tested on: IGROV1 ovarian
K-562 leukemia = tested on: K-562 leukemia
KM12 colon = tested on: KM12 colon
LOX IMVI melanoma = tested on: LOX IMVI melanoma
M14 melanoma = tested on: M14 melanoma
MALME-3M melanoma = tested on: MALME-3M melanoma
MCF7 breast = tested on: MCF7 breast
MDA-MB-231 breast = tested on: MDA-MB-231 breast
MDA-MB-435 = tested on: MDA-MB-435
MOLT-4 leukemia = tested on: MOLT-4 leukemia
NCI-H226 lung = tested on: NCI-H226 lung
NCI-H23 lung = tested on: NCI-H23 lung
NCI-H460 lung = tested on: NCI-H460 lung
NCI-H522 lung = tested on: NCI-H522 lung
NCI/ADR-RES ovarian = tested on: NCI/ADR-RES ovarian
OVCAR-3 ovarian = tested on: OVCAR-3 ovarian
OVCAR-4 ovarian = tested on: OVCAR-4 ovarian
OVCAR-5 ovarian = tested on: OVCAR-5 ovarian
OVCAR-8 ovarian = tested on: OVCAR-8 ovarian
PC-3 prostate = tested on: PC-3 prostate
RPMI-8226 leukemia = tested on: RPMI-8226 leukemia
RXF 393 renal = tested on: RXF 393 renal
SF-268 CNS = tested on: SF-268 CNS
SF-295 CNS = tested on: SF-295 CNS
SF-539 CNS = tested on: SF-539 CNS
SK-MEL-2 melanoma = tested on: SK-MEL-2 melanoma
SK-MEL-28 melanoma = tested on: SK-MEL-28 melanoma
SK-MEL-5 melanoma = tested on: SK-MEL-5 melanoma
SK-OV-3 ovarian = tested on: SK-OV-3 ovarian
SN12C renal = tested on: SN12C renal
SNB-19 CNS = tested on: SNB-19 CNS
SNB-75 CNS = tested on: SNB-75 CNS
SR leukemia = tested on: SR leukemia
SW-620 colon = tested on: SW-620 colon
T-47D breast = tested on: T-47D breast
TK-10 renal = tested on: TK-10 renal
U251 CNS = tested on: U251 CNS
UACC-257 melanoma = tested on: UACC-257 melanoma
UACC-62 melanoma = tested on: UACC-62 melanoma
UO-31 renal = tested on: UO-31 renal

With COc1cccc(-c2cc(-c3ccc(Nc4nc(Nc5ccc(Cl)cc5)nc(Nc5ccc(Cl)cc5)n4)cc3)nc(N)c2C#N)c1 the GI50 (MDA-MB-468 breast) was 2180 nM and the TGI (MDA-MB-468 breast) was 4.79 µM.
CC[C@@]12CC(C(=O)OC)=C3Nc4ccccc4[C@@]34CCN(C[C@H]3O[C@H]31)[C@@H]24 was tested, and the GI50 (MDA-MB-468 breast) was 21500 nM and the TGI (MDA-MB-468 breast) was 98.7 µM.
For CC/C(=C\c1ccc(N(C)C)cc1)c1ccncc1, the GI50 (MDA-MB-468 breast) was 2270 nM and the TGI (MDA-MB-468 breast) was 7.32 µM.
Compound Cc1cc(C)c(CNC(=O)c2cc(Cl)c3c(c2C)O[C@@](C)(C2CCC(N(C)C)CC2)O3)c(=O)[nH]1 (some centres not stated) has a GI50 (MDA-MB-468 breast) of 24100 nM and a TGI (MDA-MB-468 breast) greater than 100 µM.
C=C1C(=O)O[C@H]2[C@H]1CC/C(COC(=O)NCc1ccc(Cn3c(=O)sn(CCCI)c3=O)cc1)=C\CC[C@@]1(C)O[C@@H]21 was tested, and the GI50 (MDA-MB-468 breast) was 1540 nM and the TGI (MDA-MB-468 breast) was 3.48 µM.
Compound CC1(C)N=C(N)N=C(N)N1c1cccc(CC(=O)Nc2ccccc2)c1 has a GI50 (MDA-MB-468 breast) of 22100 nM and a TGI (MDA-MB-468 breast) greater than 100 µM.
N#Cc1cccc(/C(N)=N/C(N)=N/c2nc3ccccc3s2)c1 was tested, and the GI50 (MDA-MB-468 breast) was 415 nM.
Compound Fc1cnccc1-c1nc2ccc3[nH]ncc3c2c2c1CCCC2 has a GI50 (MDA-MB-468 breast) of 1050 nM and a TGI (MDA-MB-468 breast) of 7.86 µM.
In the case of CN(C)c1ccc(-c2cc(-c3cccc(NS(C)(=O)=O)c3)nc(N)c2C#N)cc1, the GI50 (MDA-MB-468 breast) is reported as 268 nM and the TGI (MDA-MB-468 breast) is reported as 1.17 µM.
Work on Cc1n[nH]c(C)c1-c1c(C)n[nH]c1C yielded a GI50 (MDA-MB-468 breast) of 1960 nM and a TGI (MDA-MB-468 breast) of 4.75 µM.
For O=C(NO)c1ccc(Cn2ccc3c(Nc4ccccc4)ncnc32)cc1, the GI50 (786-0 renal) was 3.78 µM, the TGI (786-0 renal) was 8.97 µM and the GI50 (A498 renal) was 1310 nM. For the same compound, the TGI (A498 renal) was 6.79 µM, the GI50 (A549 NSCLC) was 3.1 µM and the TGI (A549 NSCLC) was 15.5 µM. It also gave a GI50 (ACHN renal) of 1950 nM, a TGI (ACHN renal) of 5.92 µM and a GI50 (BT-549 breast) of 7.71 µM. It also gave a TGI (BT-549 breast) of 15.4 µM, a GI50 (CAKI-1 renal) of 2170 nM and a TGI (CAKI-1 renal) of 6.91 µM. It also gave a GI50 (CCRF-CEM leukemia) of 1410 nM, a TGI (CCRF-CEM leukemia) greater than 29 µM and a GI50 (COLO 205 colon) of 1430 nM. The TGI (COLO 205 colon) was 5.73 µM, the GI50 (DU-145 prostate) was 1410 nM and the TGI (DU-145 prostate) was greater than 29 µM. For the same compound, the GI50 (EKVX NSCLC) was 2750 nM, the TGI (EKVX NSCLC) was 6.9 µM and the GI50 (HCC-2998 colon) was 2620 nM. The TGI (HCC-2998 colon) was 6.12 µM, the GI50 (HCT-116 colon) was 993 nM and the TGI (HCT-116 colon) was 5.6 µM. For the same compound, the GI50 (HCT-15 colon) was 3.59 µM, the TGI (HCT-15 colon) was 7.81 µM and the GI50 (HL-60(TB) leukemia) was 984 nM. It also gave a TGI (HL-60(TB) leukemia) of 3.89 µM, a GI50 (HOP-62 NSCLC) of 2200 nM and a TGI (HOP-62 NSCLC) of 7.63 µM. The GI50 (HOP-92 NSCLC) was 1740 nM, the TGI (HOP-92 NSCLC) was 7.35 µM and the GI50 (HS 578T breast) was 1700 nM. For the same compound, the TGI (HS 578T breast) was 17.5 µM, the GI50 (HT29 colon) was 1430 nM and the TGI (HT29 colon) was 14.1 µM. It also gave a GI50 (IGROV1 ovarian) of 2340 nM, a TGI (IGROV1 ovarian) of 6.22 µM and a GI50 (K-562 leukemia) of 1140 nM. The TGI (K-562 leukemia) was greater than 29 µM, the GI50 (KM12 colon) was 3.7 µM and the TGI (KM12 colon) was 10.9 µM. It also gave a GI50 (LOX IMVI melanoma) of 1780 nM, a TGI (LOX IMVI melanoma) of 5.44 µM and a GI50 (M14 melanoma) of 2990 nM. The TGI (M14 melanoma) was 10.1 µM, the GI50 (MALME-3M melanoma) was 869 nM and the TGI (MALME-3M melanoma) was 4.1 µM. For the same compound, the GI50 (MCF7 breast) was 3.8 µM, the TGI (MCF7 breast) was 12.4 µM and the GI50 (MDA-MB-231 breast) was 1940 nM. It also gave a TGI (MDA-MB-231 breast) of 6.68 µM, a GI50 (MDA-MB-435) of 1220 nM and a TGI (MDA-MB-435) of 5.03 µM. It also gave a GI50 (MDA-MB-468 breast) of 718 nM, a TGI (MDA-MB-468 breast) of 2.76 µM and a GI50 (MOLT-4 leukemia) of 930 nM. The TGI (MOLT-4 leukemia) was 7.6 µM, the GI50 (NCI-H226 lung) was 3.88 µM and the TGI (NCI-H226 lung) was 16 µM. The GI50 (NCI-H23 lung) was 1470 nM, the TGI (NCI-H23 lung) was 5.08 µM and the GI50 (NCI-H460 lung) was 1330 nM. It also gave a TGI (NCI-H460 lung) of 8.45 µM, a GI50 (NCI-H522 lung) of 1070 nM and a TGI (NCI-H522 lung) of 4.87 µM. The GI50 (NCI/ADR-RES ovarian) was 636 nM, the TGI (NCI/ADR-RES ovarian) was 2030 nM and the GI50 (OVCAR-3 ovarian) was 3.06 µM. It also gave a TGI (OVCAR-3 ovarian) of 12.1 µM, a GI50 (OVCAR-4 ovarian) of 5.79 µM and a TGI (OVCAR-4 ovarian) greater than 29 µM. For the same compound, the GI50 (OVCAR-5 ovarian) was 1020 nM, the TGI (OVCAR-5 ovarian) was 5.07 µM and the GI50 (OVCAR-8 ovarian) was 1290 nM. It also gave a TGI (OVCAR-8 ovarian) of 8.8 µM, a GI50 (PC-3 prostate) of 2820 nM and a TGI (PC-3 prostate) of 21.5 µM. For the same compound, the GI50 (RPMI-8226 leukemia) was 1100 nM, the TGI (RPMI-8226 leukemia) was greater than 29 µM and the GI50 (RXF 393 renal) was 934 nM. It also gave a TGI (RXF 393 renal) of 4.02 µM, a GI50 (SF-268 CNS) of 4.06 µM and a TGI (SF-268 CNS) of 9.64 µM. The GI50 (SF-295 CNS) was 1730 nM, the TGI (SF-295 CNS) was 5.74 µM and the GI50 (SF-539 CNS) was 2550 nM. The TGI (SF-539 CNS) was 6.77 µM, the GI50 (SK-MEL-2 melanoma) was 4.75 µM and the TGI (SK-MEL-2 melanoma) was 11.4 µM. The GI50 (SK-MEL-28 melanoma) was 2040 nM, the TGI (SK-MEL-28 melanoma) was 6.29 µM and the GI50 (SK-MEL-5 melanoma) was 1060 nM. For the same compound, the TGI (SK-MEL-5 melanoma) was 4.05 µM, the GI50 (SK-OV-3 ovarian) was 2000 nM and the TGI (SK-OV-3 ovarian) was 9.87 µM. The GI50 (SN12C renal) was 3.29 µM, the TGI (SN12C renal) was 7.05 µM and the GI50 (SNB-19 CNS) was 3.26 µM. It also gave a TGI (SNB-19 CNS) of 7.51 µM, a GI50 (SNB-75 CNS) of 1040 nM and a TGI (SNB-75 CNS) of 6.11 µM. For the same compound, the GI50 (SR leukemia) was 817 nM, the TGI (SR leukemia) was greater than 29 µM and the GI50 (SW-620 colon) was 863 nM. For the same compound, the TGI (SW-620 colon) was 3.31 µM, the GI50 (T-47D breast) was 2420 nM and the TGI (T-47D breast) was greater than 29 µM. The GI50 (TK-10 renal) was 1420 nM, the TGI (TK-10 renal) was 12 µM and the GI50 (U251 CNS) was 2780 nM. It also gave a TGI (U251 CNS) of 15.8 µM, a GI50 (UACC-257 melanoma) of 2300 nM and a TGI (UACC-257 melanoma) of 9.79 µM. It also gave a GI50 (UACC-62 melanoma) of 1040 nM, a TGI (UACC-62 melanoma) of 4.42 µM and a GI50 (UO-31 renal) of 2420 nM. The TGI (UO-31 renal) was 6.38 µM.
